Results reported in patent US4520029A, “Farnesene derivatives, mucosal stabilizing compositions and method of manufacturing the same” (Kotobuki Seiyaku Co., Ltd., priority 1980, dated 1985).

Tests used:
[1] = Acute toxicity in ddY strain mice, up and down method, oral; details: mouse, in vivo, suspended in 1% methyl cellulose, given orally, observation 24 hours, read-out: LD50 (per os)
Method: Acute toxicity of the compounds of the present invention in ddY strain mice was determined by the up and down method, with observation for 24 hours. The compounds in this experiment were suspended in 1% methyl cellulose and given orally.

[2] = system: gastric epithelial cell; experiment: Gastric epithelial cell stabilizing effect in pylorus-ligated rats (NANA in gastric juice); format: in vivo, rat; details: male Donryu rats, oral three times a day for five days, 8 hours after pylorus ligation; for NANA content in gastric juice, free: control 22.5, * P < 0.05 vs control (V, VI and VII all marked *); for NANA content in gastric juice, bound: control 93.3; for NANA content in gastric juice, bound / NANA content in gastric juice, total: * P < 0.05 vs control (only V marked *); for NANA content in gastric juice, total: control 115.8
Method: The investigation of the gastric epithelial cell stabilizing effects of these compounds were examined in rats. Male Donryu strain rats, weighing about 200 g, were given the test compound orally three times a day for five days. On the fifth day the animals were fasted for 24 hours, and submitted to pylorus ligation under light ether anesthesia. The test compounds were given just after pylorus ligation orally. After 8 hours of ligation, the rats were sacrificed and the volume of gastric juice was measured. After centrifuging 6 ml of this gastric juice at 5000 r.p.m., 2 ml of the resulting supernatant was submitted to N-acetyl neuraminic acid (NANA) determination according to the method of D. Aminoff (D. Aminoff et al., Biochem. J. […], 384-392 (1961)).

[3] = system: carragenin-induced rat paw edema; experiment: Carragenin-induced rat paw edema (anti-inflammatory effect); format: in vivo; details: 300 mg/kg oral, Wister rat, maximum percentage inhibition during 4 hours after administration
Method: The anti-inflammatory effect of these compounds on carragenin-induced rat paw edema was examined in accordance with the method of C. A. Winter (J. Pharmacol. 141, 369, […]. The compounds of the present invention were suspended in 1% methyl-cellulose and orally administered at a dose of 300 mg/kg to Wister rat, weighing about 140 g. The maximum percentage inhibition during 4 hours after administration was calculated as follows: [formula] The results are shown in Table 3.

[4] = system: stress ulcer; experiment: Stress ulcer in rats (anti-ulcerative action); format: in vivo, rat; details: 100 mg/kg per os, male Wister rats, 30 minutes before the stress; stressing 18 hours; control 4.6 ± 0.70
Method: To study the anti-ulcerative actions of these compounds of the present invention further, the stress ulcer was selected. Male Wister rats, weighing 200-250 g were subjected to stress according to Takagi et al. (Chem. Pharm. Bull 12, 465, 1964). These compounds were suspended in 1% methyl cellulose and were administered to the rat at a dose of 100 mg/kg body weight per os, 30 minutes before the stress. After stressing for 18 hours, the animals were killed by a blow on the head. The removed stomach was filled with 1% formalin solution, placed in 1% formalin solution for 15 minutes and was then cut open along the greater curvature and examined for lesion to obtain the ulcer index. The ulcer index was determined in six grades (0-5; 5 implying perforation of stomach).

Structure (SMILES)	LD50 at 24 h [1]	NANA content in gastric juice, free [2]	NANA content in gastric juice, bound [2]	NANA content in gastric juice, total [2]	Maximum inhibition [3]	Score (ulcer index, six grades 0-5; 5 implying perforation of stomach) [4]
CC(C)=CCCC(C)=CCCC(C)=CCNC(=O)OCC=C(C)CCC=C(C)CCC=C(C)C [Compound VII, N-Farnesyl farnesyl carbamate]	20200 mg/kg	16.7 µg/mL	81.3 µg/mL	98.3 µg/mL	23.7%	2.1 ± 0.41
CC(C)=CCCC(C)=CCCC(C)=CCNC(=O)CC=C(C)CCC=C(C)CCC=C(C)C [Compound VI, N-Farnesyl farnesyl carboxamide]	18700 mg/kg	18.3 µg/mL	87.4 µg/mL	105.7 µg/mL	30.1%	2.3 ± 0.72
CC(C)=CCCC(C)=CCCC(C)=CCOC(=O)CC=C(C)CCC=C(C)CCC=C(C)C [Compound V, Farnesyl farnesyl carboxylate]	24500 mg/kg	17.6 µg/mL	74.5 µg/mL	92.1 µg/mL	35.8%	1.8 ± 0.50
